This data set relates to rodent carcinogenicity bioassays, tumor incidence. As to the kind of experiment: CCRIS carcinogenicity studies. In outline: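 NCI-built, expert-reviewed records of carcinogenicity and related test outcomes (mutagenicity, tumor promotion/inhibition) compiled from published and report sources, historical span 1985-2011, not updated.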

For six compounds, carcinogen call results are on record in PubChem BioAssay AID1259411 (Chemical Carcinogenesis Research Information System (CCRIS), 2018).

The source made the active and inactive calls. How the calls were made is not given here.

Turning to `NC(=O)c1ccccc1C(N)=O`, the carcinogen call was “inactive; negative” (Species: MOUSE, Strain/Sex: B6C3F1/FEMALE, Route: ORAL, Dose: 0, 6200, 12500, 25000 PPM IN DIET FOR 103-105 WK, Dose: 0, 6200, 12500, 25000 PPM IN DIET FOR 103-105 WK); “inactive; negative” (Species: MOUSE, Strain/Sex: B6C3F1/MALE, Route: ORAL, Dose: 0, 25000, 50000 PPM IN DIET FOR 105 WK, Dose: 0, 25000, 50000 PPM IN DIET FOR 105 WK); “inactive; negative” (Species: RAT, Strain/Sex: F344/FEMALE, Route: ORAL, Dose: 0, 5000, 10000 PPM IN DIET FOR 106 WK, Dose: 0, 5000, 10000 PPM IN DIET FOR 106 WK); “inactive; negative” (Species: RAT, Strain/Sex: F344/MALE, Route: ORAL, Dose: 0, 15000, 30000 PPM IN DIET FOR 106 WK, Dose: 0, 15000, 30000 PPM IN DIET FOR 106 WK).
As for `O=C(O)CC(O)(CC(=O)O)C(=O)O`, the carcinogen call is “active; positive” (Species: MOUSE, Strain/Sex: BC3F1/FEMALE, Route: IP INJECTION ONCE, Dose: 100, 500, 1000, 5000 BQ (STUDY DURATION: LIFESPAN), Dose: 100, 500, 1000, 5000 BQ (STUDY DURATION: LIFESPAN), Tumor Site: Type of Lesion: BONE: OSTEOSARCOMAS); “active; positive” (Species: MOUSE, Strain/Sex: C3H/FEMALE, Route: IP INJECTION ONCE, Dose: 100, 500, 1000, 5000 BQ (STUDY DURATION: LIFESPAN), Dose: 100, 500, 1000, 5000 BQ (STUDY DURATION: LIFESPAN), Tumor Site: Type of Lesion: BONE: OSTEOSARCOMAS); “active; positive” (Species: MOUSE, Strain/Sex: C57BL/6/FEMALE, Route: IP INJECTION ONCE, Dose: 100, 500, 1000, 5000 BQ (STUDY DURATION: LIFESPAN), Dose: 100, 500, 1000, 5000 BQ (STUDY DURATION: LIFESPAN), Tumor Site: Type of Lesion: BONE: OSTEOSARCOMAS).
Take `c1ccc2c(c1)c1c(c3cccnc32)O1`: the carcinogen call is “inactive; negative” (Species: MOUSE, Strain/Sex: CD-1/FEMALE, Route: INTRAPERITONEAL, Dose: 0, 5, 10 AND 20 µL OF A 0.05 MOLAR SOLUTION ON DAYS 1, 8 AND 15 OF LIFE RESPECTIVELY (TOTAL DOSE: 1.75 UMOL) (STUDY DURA, Dose: 0, 5, 10 AND 20 µL OF A 0.05 MOLAR SOLUTION ON DAYS 1, 8 AND 15 OF LIFE RESPECTIVELY (TOTAL DOSE: 1.75 UMOL) (STUDY DURA) and “inactive; negative” (Species: MOUSE, Strain/Sex: CD-1/MALE, Route: INTRAPERITONEAL, Dose: 0, 5, 10 AND 20 µL OF A 0.05 MOLAR SOLUTION ON DAYS 1, 8 AND 15 OF LIFE RESPECTIVELY (TOTAL DOSE: 1.75 UMOL) (STUDY DURA, Dose: 0, 5, 10 AND 20 µL OF A 0.05 MOLAR SOLUTION ON DAYS 1, 8 AND 15 OF LIFE RESPECTIVELY (TOTAL DOSE: 1.75 UMOL) (STUDY DURA).
`c1ccc2c(c1)ccc1c2ccc2c3ccccc3ccc21`: the carcinogen call was “active; positive” (Species: MOUSE, Strain/Sex: NMRI/FEMALE, Route: DERMAL, Dose: 0, 136, 448, 1358 NMOL (TOTAL DOSE) APPLIED AS 1 DROP OF ACETONE SOLUTION 3/WK FOR DURATION OF STUDY (STUDY DURATION: 11, Dose: 0, 136, 448, 1358 NMOL (TOTAL DOSE) APPLIED AS 1 DROP OF ACETONE SOLUTION 3/WK FOR DURATION OF STUDY (STUDY DURATION: 11, Tumor Site: Type of Lesion: SKIN: PAPILLOMA); “active; positive” (Species: MOUSE, Strain/Sex: NMRI/FEMALE, Route: SUBCUTANEOUS, Dose: 0, 36, 40, 108, 308, 399 NMOL IN TRICAPRYLIN ONCE (STUDY DURATION: 112 WK), Dose: 0, 36, 40, 108, 308, 399 NMOL IN TRICAPRYLIN ONCE (STUDY DURATION: 112 WK), Tumor Site: Type of Lesion: INJECTION SITE: FIBROSARCOMA); “active; positive” (Species: MOUSE, Strain/Sex: NMRI/FEMALE, Route: SUBCUTANEOUS, Dose: 0, 40, 400 NMOL IN 0.05 ML OF AN AQUEOUS SOLUTION CONTAINING 1% (W/W) GELATIN 0.9% (W/W) SODIUM CHLORIDE AND 0.4% (W/W), Dose: 0, 40, 400 NMOL IN 0.05 ML OF AN AQUEOUS SOLUTION CONTAINING 1% (W/W) GELATIN 0.9% (W/W) SODIUM CHLORIDE AND 0.4% (W/W), Tumor Site: Type of Lesion: LUNG: ADENOMA).
In the case of `O=[N+]([O-])c1cc([N+](=O)[O-])c2ccc(S(=O)(=O)O)cc2c1O`, the carcinogen call is “inactive; negative” (Species: MOUSE, Strain/Sex: SWISS-WEBSTER/FEMALE, Route: DERMAL, Dose: 0, 1% IN 0.1 ML DISTILLED WATER 1/WK FOR 18 MO (STUDY DURATION: 18 MO)) and “inactive; negative” (Species: MOUSE, Strain/Sex: SWISS-WEBSTER/MALE, Route: DERMAL, Dose: 0, 1% IN 0.1 ML DISTILLED WATER 1/WK FOR 18 MO (STUDY DURATION: 18 MO)).
In the case of `Cc1ccccc1[N+](=O)[O-]`, the carcinogen call by setting is: (Species: MOUSE, Strain/Sex: B6C3F1/FEMALE, Route: ORAL, Dose: 0, 1250, 2500, 5000 PPM IN DIET FOR 105 WK (STUDY DURATION: 105 WK), Dose: 0, 1250, 2500, 5000 PPM IN DIET FOR 105 WK (STUDY DURATION: 105 WK), Tumor Site: Type of Lesion: CIRCULATORY SYSTEM: HEMANGIOSARCOMA, LARGE INTESTINE (CECUM): CARCINOMA, LIVER: HEPATOCELLULAR ADENOMA, HEPATOCELLULAR C, Tumor Site: Type of Lesion: CIRCULATORY SYSTEM: HEMANGIOSARCOMA, LARGE INTESTINE (CECUM): CARCINOMA, LIVER: HEPATOCELLULAR ADENOMA, HEPATOCELLULAR C) “active; positive”; (Species: MOUSE, Strain/Sex: B6C3F1/MALE, Route: ORAL, Dose: 0, 1250, 2500, 5000 PPM IN DIET FOR 105 WK (STUDY DURATION: 105 WK), Dose: 0, 1250, 2500, 5000 PPM IN DIET FOR 105 WK (STUDY DURATION: 105 WK), Tumor Site: Type of Lesion: CIRCULATORY SYSTEM: HEMANGIOSARCOMA, LARGE INTESTINE (CECUM): CARCINOMA) “active; positive”; (Species: RAT, Strain/Sex: F344/FEMALE, Route: ORAL, Dose: 0, 625, 1250, 2000 PPM IN DIET FOR 105 WK (STUDY DURATION: 105 WK), Dose: 0, 625, 1250, 2000 PPM IN DIET FOR 105 WK (STUDY DURATION: 105 WK), Tumor Site: Type of Lesion: SKIN (SUBCUTANEOUS): FIBROMA, FIBROMA OR FIBROSARCOMA, MAMMARY GLAND: FIBROADENOMA: LIVER: HEPATOCELLULAR ADENOMA) “active; positive”; (Species: RAT, Strain/Sex: F344/MALE, Route: ORAL, Dose: 0, 625, 1250, 2000 PPM IN DIET FOR 105 WK (STUDY DURATION: 105 WK), Dose: 0, 625, 1250, 2000 PPM IN DIET FOR 105 WK (STUDY DURATION: 105 WK), Tumor Site: Type of Lesion: MESOTHELIUM: MALIGNANT MESOTHELIOMA, SKIN (SUBCUTANEOUS): LIPOMA, FIBROMA, FIBROSARCOMA, FIBROMA OR FIBROSARCOMA, MAMMAR, Tumor Site: Type of Lesion: MESOTHELIUM: MALIGNANT MESOTHELIOMA, SKIN (SUBCUTANEOUS): LIPOMA, FIBROMA, FIBROSARCOMA, FIBROMA OR FIBROSARCOMA, MAMMAR) “active; positive”; (Species: RAT, Strain/Sex: F344/MALE, Route: ORAL, Dose: 0, 2000, 5000 PPM IN DIET FOR FIRST 3 MO (STUDY DURATION: 105 WK), Dose: 0, 2000, 5000 PPM IN DIET FOR FIRST 3 MO (STUDY DURATION: 105 WK), Tumor Site: Type of Lesion: LIVER: HEPATOCELLULAR ADENOMA OR CARCINOMA, CHOLANGIOCARCINOMA: LUNG: ALVEOLAR/BRONCHIOLAR ADENOMA, ALVEOLAR/BRONCHIOLAR) “active; positive”.
